Like-named read-outs stand apart in the source and are kept apart here.
Columns and labels:
PLpro of SARS-CoV-2 [1] = biological target: T1, PLpro of SARS-CoV-2 (Severe acute respiratory syndrome coronavirus 2, UniProt P0DTD1); experiment: Enzyme activity test in vitro: inhibition of PLpro at fixed concentration 50 μM (RLRGG-AMC substrate); format: biochemical; settings: read-out: Inhibition rate at 50 μM (%)
PLpro of SARS-CoV-2 [2] = biological target: T1, PLpro of SARS-CoV-2; experiment: IC50 determination of inhibition of PLpro activity (RLRGG-AMC substrate); format: biochemical; settings: 13 concentrations 100 μM to 0.0244 μM, GraphPad Prism
[3] = compound 50 μM, 10 min preincubation at 37° C., Table 1

COC(=O)c1cccc(Nc2c(-c3ccc(N4CCOCC4)cc3)nc3cnccn23)c1 [P141, methyl 3-[[2-(4-morpholin-4-ylphenyl)imidazo [1,2-a]pyrazin-3-yl]amino]benzoate]
inhibition at 50 µM (PLpro of SARS-CoV-2 [1]; [3]): 63.8% | IC50 (PLpro of SARS-CoV-2 [2]): 38.1 µM

O=C(O)c1ccc(Nc2c(-c3ccc(Cl)cc3)nc3cnccn23)cc1 [P18224, 4-[[2-(4-chlorophenyl)imidazo[1,2-a]pyrazin-3-yl]amino] benzoic acid]
inhibition at 50 µM (PLpro of SARS-CoV-2 [1]; [3]): 54.6% | IC50 (PLpro of SARS-CoV-2 [2]): 38.3 µM

COc1ccc(-c2nc3cnccn3c2Nc2ccc(C(N)=O)cc2)cc1 [P19442, 4-[[2-(4-methoxyphenyl)imidazo[1,2-a]pyrazin-3-yl]amino] benzamide]
inhibition at 50 µM (PLpro of SARS-CoV-2 [1]; [3]): 61.1% | IC50 (PLpro of SARS-CoV-2 [2]): 43.2 µM

CNC(=O)c1cccc(Nc2c(-c3ccc(N(C)C)cc3)nc3cnccn23)c1 [P19443, 3-[[2-[4-(dimethyl-amino)phenyl]imidazo [1,2-a]pyrazin-3-yl]amino]-N-methyl-benzamide]
inhibition at 50 µM (PLpro of SARS-CoV-2 [1]; [3]): 53% | IC50 (PLpro of SARS-CoV-2 [2]): 31.1 µM

CSc1ccc(-c2nc3cnccn3c2Nc2ccc(C(=O)O)cc2)cc1 [P19445, 4-[[2-(4-methyl-sulfanylphenyl)imidazo [1,2-a]pyrazin-3-yl]amino]benzoic acid]
inhibition at 50 µM (PLpro of SARS-CoV-2 [1]; [3]): 50.2% | IC50 (PLpro of SARS-CoV-2 [2]): 47.6 µM

COC(=O)c1cccc(Nc2c(-c3ccc(N(C)C)cc3)nc3cnccn23)c1 [P19446, methyl 3-[[2-[4-(dimethyl-amino)phenyl]imidazo [1,2-a]pyrazin-3-yl]amino]benzoate]
inhibition at 50 µM (PLpro of SARS-CoV-2 [1]; [3]): 65.8% | IC50 (PLpro of SARS-CoV-2 [2]): 30.3 µM

Cc1ccc(-c2nc3cnccn3c2Nc2ccc(C(N)=O)cc2)cc1 [P19452, 4-[[2-(4-methyl-phenyl)imidazo[1,2-a]pyrazin-3-yl]amino] benzamide]
inhibition at 50 µM (PLpro of SARS-CoV-2 [1]; [3]): 53.1% | IC50 (PLpro of SARS-CoV-2 [2]): 28.4 µM

COc1ccc(Nc2c(-c3ccc(OC)c(OC)c3)nc3cnccn23)cc1OC [P19453, N,2-bis(3,4-dimethoxy-phenyl)imidazo [1,2-a]pyrazin-3-amine]
inhibition at 50 µM (PLpro of SARS-CoV-2 [1]; [3]): 65.5% | IC50 (PLpro of SARS-CoV-2 [2]): 6.45 µM

COc1ccc(-c2nc3cnccn3c2Nc2ccc(C(N)=O)cc2)cc1OC [P19454, 4-[[2-(3,4-dimethoxy-phenyl)imidazo [1,2-a]pyrazin-3-yl]amino]benzamide]
inhibition at 50 µM (PLpro of SARS-CoV-2 [1]; [3]): 53.8% | IC50 (PLpro of SARS-CoV-2 [2]): 36.8 µM

COc1cc(-c2nc3cnccn3c2Nc2ccc(C(=O)O)cc2)ccc1O [P19455, 4-[[2-(4-hydroxy-3-methoxyphenyl)imidazo[1,2-a]pyrazin-3-yl]amino]benzoic acid]
inhibition at 50 µM (PLpro of SARS-CoV-2 [1]; [3]): 53.1% | IC50 (PLpro of SARS-CoV-2 [2]): 26.6 µM

COC(=O)c1cccc(Nc2c(-c3cccc(Cl)c3)nc3cnccn23)c1 [P19456, methyl 3-[[2-(3-chlorophenyl)imidazo[1,2-a]pyrazin-3-yl]amino] benzoate]
inhibition at 50 µM (PLpro of SARS-CoV-2 [1]; [3]): 47.8% | IC50 (PLpro of SARS-CoV-2 [2]): 60.9 µM

CSc1ccc(-c2nc3cnccn3c2Nc2ccc(C(N)=O)cc2)cc1 [P19462, 4-[[2-(4-methyl-sulfanylphenyl)imidazo [1,2-a]pyrazin-3-yl]amino]benzamide]
inhibition at 50 µM (PLpro of SARS-CoV-2 [1]; [3]): 65% | IC50 (PLpro of SARS-CoV-2 [2]): 26 µM

COc1ccc(-c2nc3cnccn3c2Nc2ccc(C(=O)NC3CCCCC3)cc2)cc1 [P22414, N-cyclohexyl-4-[[2-(4-methoxyphenyl)imidazo[1,2-a]pyrazin-3-yl]amino]benzamide]
inhibition at 50 µM (PLpro of SARS-CoV-2 [1]; [3]): 51.1% | IC50 (PLpro of SARS-CoV-2 [2]): 45.9 µM

Cc1ccc(-c2nc3cnccn3c2Nc2ccc(C(=O)N3CCOCC3)cc2)cc1 [P22415, [4-[[2-(4-methyl-phenyl)imidazo[1,2-a]pyrazin-3-yl]amino]phenyl]-morpholin-4-ylmethanone]
inhibition at 50 µM (PLpro of SARS-CoV-2 [1]; [3]): 63.3% | IC50 (PLpro of SARS-CoV-2 [2]): 49.7 µM

Cc1ccc(-c2nc3cnccn3c2Nc2ccc(C(=O)NCCN3CCOCC3)cc2)cc1 [P22423, 4-[[2-(4-methylphenyl)imidazo[1,2-a]pyrazin-3-yl]amino]-N-(2-morpholin-4-ylethyl)benzamide]
inhibition at 50 µM (PLpro of SARS-CoV-2 [1]; [3]): 54.5% | IC50 (PLpro of SARS-CoV-2 [2]): 33.5 µM

O=C(NC1CCCCC1)c1cccc(Nc2c(-c3ccc(Cl)cc3)nc3cnccn23)c1 [P22438, 3-[[2-(4-chlorophenyl)imidazo[1,2-a]pyrazin-3-yl]amino]-N-cyclohexyl-benzamide]
inhibition at 50 µM (PLpro of SARS-CoV-2 [1]; [3]): 54.2% | IC50 (PLpro of SARS-CoV-2 [2]): 40.8 µM

COc1ccc(-c2nc3cnccn3c2Nc2ccc(C(=O)NCc3ccco3)cc2)cc1 [P22445, N-(furan-2-ylmethyl)-4-[[2-(4-methoxy-phenyl)imidazo[1,2-a]pyrazin-3-yl]amino]benzamide]
inhibition at 50 µM (PLpro of SARS-CoV-2 [1]; [3]): 62.3% | IC50 (PLpro of SARS-CoV-2 [2]): 13.9 µM

CCNC(=O)c1ccc(Nc2c(-c3ccc(OC)cc3)nc3cnccn23)cc1 [P22471, Nethyl-4-[[2-(4-methoxyphenyl)imidazo[1,2-a]pyrazin-3-yl]amino]benzamide]
inhibition at 50 µM (PLpro of SARS-CoV-2 [1]; [3]): 52.8% | IC50 (PLpro of SARS-CoV-2 [2]): 35.1 µM

COc1ccc(-c2nc3cnccn3c2Nc2cccc(C(N)=O)c2)cc1 [P22475, 3-[[2-(4-methoxy-phenyl)imidazo[1,2-a]pyrazin-3-yl]amino] benzamide]
inhibition at 50 µM (PLpro of SARS-CoV-2 [1]; [3]): 60.1% | IC50 (PLpro of SARS-CoV-2 [2]): 16.6 µM

CSc1ccc(-c2nc3cnccn3c2Nc2cccc(C(=O)NCc3ccco3)c2)cc1 [P22479]
inhibition at 50 µM (PLpro of SARS-CoV-2 [1]; [3]): 58.8% | IC50 (PLpro of SARS-CoV-2 [2]): 35.4 µM

COC(=O)c1ccc(-c2nc3cnccn3c2Nc2c(C)cccc2C)cc1 [P37307, methyl 4-[3-(2,6-dimethyl-anilino)imidazo[1,2-a]pyrazin-2-yl] benzoate]
inhibition at 50 µM (PLpro of SARS-CoV-2 [1]): 43.4%

Cc1ccc(-c2nc3cnccn3c2Nc2cccc(C(=O)O)c2)cc1 [P37308, 3-[[2-(4-methyl-phenyl)imidazo[1,2-a]pyrazin-3-yl]amino] benzoic acid]
inhibition at 50 µM (PLpro of SARS-CoV-2 [1]): 20.8%

COC(=O)c1ccc(-c2nc3cnccn3c2Nc2cccc(C(F)(F)F)c2)cc1 [P37317, methyl 4-[3-[3-(trifluoro-methyl)anilino]imidazo [1,2-a]pyrazin-2-yl]benzoate]
inhibition at 50 µM (PLpro of SARS-CoV-2 [1]): 27.6%

O=C(O)c1cccc(Nc2c(-c3ccccc3O)nc3cnccn23)c1 [P37318, 3-[[2-(2-hydroxy-phenyl)imidazo[1,2-a]pyrazin-3-yl]amino] benzoic acid]
inhibition at 50 µM (PLpro of SARS-CoV-2 [1]): 15.9%

COC(=O)c1cccc(Nc2c(-c3ccc(O)cc3)nc3cnccn23)c1 [P37327, methyl 3-[[2-(4-hydroxy-phenyl)imidazo[1,2-a]pyrazin-3-yl]amino] benzoate]
inhibition at 50 µM (PLpro of SARS-CoV-2 [1]): 48.5%

O=C(O)c1cccc(Nc2c(-c3ccc([N+](=O)[O-])cc3)nc3cnccn23)c1 [P37328, 3-[[2-(4-nitrophenyl)imidazo[1,2-a]pyrazin-3-yl]amino] benzoic acid]
inhibition at 50 µM (PLpro of SARS-CoV-2 [1]): 17.2%

COC(=O)c1cccc(Nc2c(-c3ccc(Cl)cc3)nc3cnccn23)c1 [P37337, methyl 3-[[2-(4-chlorophenyl)imidazo[1,2-a]pyrazin-3-yl]amino] benzoate]
inhibition at 50 µM (PLpro of SARS-CoV-2 [1]): 23%

O=C(O)c1cccc(Nc2c(-c3cccc(O)c3)nc3cnccn23)c1 [P37338, 3-[[2-(3-hydroxy-phenyl)imidazo[1,2-a]pyrazin-3-yl]amino] benzoic acid]
inhibition at 50 µM (PLpro of SARS-CoV-2 [1]): 11.7%

COC(=O)c1cccc(Nc2c(-c3ccccc3O)nc3cnccn23)c1 [P37347, methyl 3-[[2-(2-hydroxy-phenyl)imidazo[1,2-a]pyrazin-3-yl]amino] benzoate]
inhibition at 50 µM (PLpro of SARS-CoV-2 [1]): 25%

CCc1cccc(C)c1Nc1c(-c2ccc(N)cc2)nc2cnccn12 [P37348, 2-(4-aminophenyl)-N-(2-ethyl-6-methyl-phenyl)imidazo[1,2-a]pyrazin-3-amine]
inhibition at 50 µM (PLpro of SARS-CoV-2 [1]): 16%

Fc1ccc(-c2nc3cnccn3c2Nc2ccc(Cl)cc2)cc1 [P37356, N-(4-chlorophenyl)-2-(4-fluorophenyl) imidazo[1,2-a] pyrazin-3-amine]
inhibition at 50 µM (PLpro of SARS-CoV-2 [1]): 3.18%

COC(=O)c1cccc(Nc2c(-c3ccc(F)cc3)nc3cnccn23)c1 [P37357, methyl 3-[[2-(4-fluorophenyl)imidazo[1,2-a]pyrazin-3-yl]amino] benzoate]
inhibition at 50 µM (PLpro of SARS-CoV-2 [1]): 4.32%

Source: US20250032485A1, “APPLICATION OF IMIDAZO [1,2-A] PYRAZINE COMPOUNDS OR THEIR PHARMACEUTICALLY ACCEPTABLE SALTS IN THE PREPARATION OF ANTI-CORONAVIRUS DRUGS” (GUANGZHOU MEDICAL UNIVERSITY, priority 2023, published 2025)
